Reference: ChEMBL document CHEMBL4184190, “Podophyllotoxin derivatives as an excellent anticancer aspirant for future chemotherapy: A key current imminent needs” (Bioorg Med Chem, 2018)

How the values were obtained:
Assay type in all cases: functional, cell-based
HeLa [1] = assay: Cytotoxicity against human HeLa cells after 48 hrs by MTT assay
DU-145 = assay: Cytotoxicity against human DU145 cells after 48 hrs by MTT assay; settings: DU-145, 48 h
A549 = assay: Cytotoxicity against human A549 cells after 48 hrs by MTT assay; settings: A549, 48 h
MCF7 = assay: Cytotoxicity against human MCF7 cells after 48 hrs by MTT assay; settings: MCF7, 48 h
K562 = assay: Cytotoxicity against human K562 cells after 48 hrs by MTT assay; settings: K562, 48 h
U-251 = assay: Cytotoxicity against human U251 cells after 48 hrs by MTT assay; settings: U-251, 48 h
BGC-823 = assay: Cytotoxicity against human BGC823 cells after 48 hrs by MTT assay; settings: BGC-823, 48 h
HeLa [2] = assay: Cytotoxicity against human HeLa cells by MTT assay

| Structure (SMILES) | IC50 (HeLa [1]) | IC50 (DU-145) | IC50 (A549) | IC50 (MCF7) | IC50 (K562) | IC50 (U-251) | IC50 (BGC-823) | IC50 (HeLa [2]) |
| --- | --- | --- | --- | --- | --- | --- | --- | --- |
| COc1ccc2nc([C@@H]3c4cc5c(cc4[C@@H](c4cc(OC)c(OC)c(OC)c4)[C@H]4C(=O)OC[C@H]34)OCO5)oc2c1 | 1.2 to 5.3 µM | 1.2 to 5.3 µM | 1.2 to 5.3 µM | 1.2 to 5.3 µM | – | – | – | – |
| COc1cc([C@@H]2c3cc4c(cc3[C@@H](Nc3cccc(CN5CCCCC5)c3)[C@H]3COC(=O)[C@H]23)OCO4)cc(OC)c1OC | – | – | 14.5 µM | – | 1.1 µM | 0.4 µM | – | – |
| COc1cc([C@@H]2c3cc4c(cc3[C@@H](Nc3ncccc3F)[C@H]3COC(=O)[C@H]23)OCO4)cc(OC)c1O | 0.06 µM | – | – | 1.42 µM | – | – | 0.96 µM | – |
| COc1cc([C@@H]2c3cc4c(cc3[C@@H](NC(=O)C(=O)c3c[nH]c5ccc(C(=O)N6CCCCC6)cc35)[C@H]3COC(=O)[C@H]23)OCO4)cc(OC)c1OC | – | – | – | – | – | – | – | 5.57 µM |
| COc1cc([C@@H]2c3cc4c(cc3[C@@H](NC(=O)C(=O)c3c[nH]c5ccc(C(=O)NC(C)C)cc35)[C@H]3COC(=O)[C@H]23)OCO4)cc(OC)c1OC | – | – | – | – | – | – | – | 3.92 µM |
| CCN(CC)C(=O)c1ccc2[nH]cc(C(=O)C(=O)N[C@@H]3c4cc5c(cc4[C@@H](c4cc(OC)c(OC)c(OC)c4)[C@H]4C(=O)OC[C@@H]43)OCO5)c2c1 | – | – | – | – | – | – | – | 5.19 µM |
| COc1cc([C@@H]2c3cc4c(cc3[C@@H](c3nc5ccccc5o3)[C@H]3COC(=O)[C@H]23)OCO4)cc(OC)c1OC | 1.2 to 5.3 µM | 1.2 to 5.3 µM | 1.2 to 5.3 µM | 1.2 to 5.3 µM | – | – | – | – |
| COc1cc([C@@H]2c3cc4c(cc3[C@@H](Nc3ncccc3F)[C@H]3COC(=O)[C@H]23)OCO4)cc(OC)c1OC | 0.2 µM | – | – | 4.49 µM | – | – | 2.18 µM | – |
| COc1cc([C@@H]2c3cc4c(cc3[C@@H](c3nc5ccc(Cl)cc5o3)[C@H]3COC(=O)[C@H]23)OCO4)cc(OC)c1OC | 1.2 to 5.3 µM | 1.2 to 5.3 µM | 1.2 to 5.3 µM | 1.2 to 5.3 µM | – | – | – | – |
| COc1cc([C@@H]2c3cc4c(cc3[C@@H](c3nc5ccc(OC)c(OC)c5o3)[C@H]3COC(=O)[C@H]23)OCO4)cc(OC)c1OC | 1.2 to 5.3 µM | 1.2 to 5.3 µM | 1.8 µM | 2 µM | – | – | – | – |
| COc1cc([C@@H]2c3cc4c(cc3[C@@H](O[C@@H]3O[C@@H]5CO[C@@H](C)O[C@H]5[C@H](O)[C@H]3O)[C@H]3COC(=O)[C@H]23)OCO4)cc(OC)c1O [ETOPOSIDE] | 2.03 to 5.74 µM | 2.03 to 5.74 µM | 2.03 to 5.74 µM | 2.03 to 5.74 µM | – | – | – | – |
